According to patent US20260356804A1, “SODIUM CHANNEL BLOCKING COMPOUNDS, DERIVATIVES THEREOF, AND METHODS OF THEIR USE” (LATIGO BIOTHERAPEUTICS, INC., priority 2022, published 2026):
Blank lines part the entries; values can stand above or below the molecule they belong to.

Target: T1, human Nav1.8/b3 (Homo sapiens, UniProt Q9Y5Y9)
T1 construct: expressed in transfected cells; host or cells: CHO
Test: Compound Profiling Human NaV1.8/β3 Cell Line—SyncroPatch384PE Assay (automated patch clamp, stably transfected CHO cells)
Assay type: cell-based
Details: Nav1.8/b3 CHO cells

[1] = P1 (IC50, resting state block), P1 measurement, resting state block, holding potential −120 mV, fourth set of compounds
[2] = P2 (IC50, inactivated state block), P2 measurement, inactivated state block, inactivation step −35 mV 10 sec, fourth set of compounds
[3] = P1 (IC50, resting state block), P1 measurement, resting state block, holding potential −120 mV, third set of compounds
[4] = P2 (IC50, inactivated state block), P2 measurement, inactivated state block, inactivation step −35 mV 10 sec, third set of compounds
[5] = P1 (IC50, resting state block), P1 measurement, resting state block, holding potential −120 mV, first set of compounds
[6] = P2 (IC50, inactivated state block), P2 measurement, inactivated state block, inactivation step −35 mV 10 sec, first set of compounds
[7] = P1 (IC50, resting state block), P1 measurement, resting state block, holding potential −120 mV, second set of compounds
[8] = P2 (IC50, inactivated state block), P2 measurement, inactivated state block, inactivation step −35 mV 10 sec, second set of compounds

T1 sequence (Q9Y5Y9 whole entry): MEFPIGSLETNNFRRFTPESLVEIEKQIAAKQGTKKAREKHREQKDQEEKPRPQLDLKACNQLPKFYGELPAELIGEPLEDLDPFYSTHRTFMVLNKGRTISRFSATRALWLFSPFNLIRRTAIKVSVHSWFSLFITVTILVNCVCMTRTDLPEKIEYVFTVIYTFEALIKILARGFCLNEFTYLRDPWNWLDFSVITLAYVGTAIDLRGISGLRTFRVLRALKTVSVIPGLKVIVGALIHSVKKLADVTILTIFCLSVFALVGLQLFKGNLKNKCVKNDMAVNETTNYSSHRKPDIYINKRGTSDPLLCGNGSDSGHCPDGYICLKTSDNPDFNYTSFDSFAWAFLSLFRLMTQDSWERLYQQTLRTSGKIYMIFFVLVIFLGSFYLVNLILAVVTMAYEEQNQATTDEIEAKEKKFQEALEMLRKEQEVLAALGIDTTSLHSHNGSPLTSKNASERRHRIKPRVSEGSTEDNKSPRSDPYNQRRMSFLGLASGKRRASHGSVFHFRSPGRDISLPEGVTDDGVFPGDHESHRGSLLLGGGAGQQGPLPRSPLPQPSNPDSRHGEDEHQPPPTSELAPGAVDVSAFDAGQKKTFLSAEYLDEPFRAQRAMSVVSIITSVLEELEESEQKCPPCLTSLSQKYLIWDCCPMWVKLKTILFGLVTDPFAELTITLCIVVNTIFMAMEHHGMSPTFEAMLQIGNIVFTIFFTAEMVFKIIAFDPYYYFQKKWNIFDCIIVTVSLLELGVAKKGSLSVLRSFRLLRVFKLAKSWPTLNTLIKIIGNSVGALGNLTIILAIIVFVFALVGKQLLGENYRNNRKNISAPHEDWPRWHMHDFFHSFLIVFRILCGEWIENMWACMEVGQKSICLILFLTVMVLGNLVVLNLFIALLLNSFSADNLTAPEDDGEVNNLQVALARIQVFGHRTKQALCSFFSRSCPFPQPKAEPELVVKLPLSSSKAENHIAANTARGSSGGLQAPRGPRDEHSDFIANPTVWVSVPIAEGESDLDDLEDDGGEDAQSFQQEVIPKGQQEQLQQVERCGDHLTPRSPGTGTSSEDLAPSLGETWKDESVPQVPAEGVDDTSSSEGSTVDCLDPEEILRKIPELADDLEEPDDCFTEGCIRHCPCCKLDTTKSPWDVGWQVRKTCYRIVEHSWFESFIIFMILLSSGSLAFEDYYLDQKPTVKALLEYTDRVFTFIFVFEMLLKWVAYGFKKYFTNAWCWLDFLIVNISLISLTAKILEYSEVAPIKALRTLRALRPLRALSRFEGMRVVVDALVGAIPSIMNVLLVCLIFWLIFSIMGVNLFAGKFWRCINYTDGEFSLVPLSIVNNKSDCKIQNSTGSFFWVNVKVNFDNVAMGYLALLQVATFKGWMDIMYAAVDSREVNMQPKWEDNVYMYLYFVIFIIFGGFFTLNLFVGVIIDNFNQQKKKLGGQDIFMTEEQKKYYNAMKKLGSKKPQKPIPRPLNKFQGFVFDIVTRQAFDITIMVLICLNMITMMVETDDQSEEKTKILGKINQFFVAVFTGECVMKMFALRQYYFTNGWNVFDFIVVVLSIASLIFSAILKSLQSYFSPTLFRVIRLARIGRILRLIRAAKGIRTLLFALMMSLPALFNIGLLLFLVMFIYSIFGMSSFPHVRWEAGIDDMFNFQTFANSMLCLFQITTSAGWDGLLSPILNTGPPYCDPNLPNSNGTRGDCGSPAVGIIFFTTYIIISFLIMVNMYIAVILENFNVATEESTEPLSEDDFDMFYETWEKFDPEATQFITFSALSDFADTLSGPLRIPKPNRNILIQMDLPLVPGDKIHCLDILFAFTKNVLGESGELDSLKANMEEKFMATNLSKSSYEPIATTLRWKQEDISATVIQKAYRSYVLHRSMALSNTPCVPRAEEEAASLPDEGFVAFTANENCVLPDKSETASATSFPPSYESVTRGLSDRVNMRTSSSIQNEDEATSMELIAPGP
T1 sequence (Q9NY72 23-215 partner): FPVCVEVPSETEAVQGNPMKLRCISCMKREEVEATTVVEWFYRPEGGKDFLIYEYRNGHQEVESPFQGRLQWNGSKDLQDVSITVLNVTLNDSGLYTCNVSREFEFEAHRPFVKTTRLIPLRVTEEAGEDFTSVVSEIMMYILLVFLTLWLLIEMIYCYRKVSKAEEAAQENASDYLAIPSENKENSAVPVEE

IC50 [1]: < 5 nM
IC50 [2]: < 5 nM
Compound: Cc1nc(F)ccc1Oc1ncc(C(F)(F)F)c(C)c1C(=O)Nc1cccc([S@@](C)(=O)=NC(=O)[C@H]2CCCO2)c1 [Example 14D, 2-((6-fluoro-2-methylpyridin-3-yl)oxy)-4-methyl-N-(3-((R)—S-methyl-N—((R)-tetrahydrofuran-2-carbonyl)sulfonimidoyl)phenyl)-5-(trifluoromethyl)nicotinamide]

IC50 [3]: 50 to 100 nM
IC50 [4]: 50 to 100 nM
Compound: Cc1nc(F)ccc1Oc1nnc(C(F)(F)F)c(C)c1C(=O)Nc1cccc([S@](C)(=N)=O)c1 [Example 9C, (R)-3-((6-fluoro-2-methylpyridin-3-yl)oxy)-5-methyl-N-(3-(S-methylsulfonimidoyl)phenyl)-6-(trifluoromethyl)pyridazine-4-carboxamide]

IC50 [5]: 5 to 50 nM
IC50 [6]: 5 to 50 nM
Compound: Cc1nc(F)ccc1Oc1cc(C(F)(F)F)c(Cl)cc1C(=O)Nc1ccc(C(N)=O)nc1 [Example 64A]

IC50 [5]: < 5 nM
IC50 [6]: < 5 nM
Compound: Cc1nc(F)ccc1Oc1ccc(C(F)(F)F)c(C)c1C(=O)Nc1cccc([S@](C)(=N)=O)c1 [Example 3A, (R)-6-((6-fluoro-2-methylpyridin-3-yl)oxy)-2-methyl-N-(3-(S-methylsulfonimidoyl)phenyl)-3-(trifluoromethyl)benzamide]

IC50 [1]: < 5 nM
IC50 [2]: < 5 nM
Compound: Cc1nc(F)ccc1Oc1ncc(C(F)(F)F)c(C)c1C(=O)Nc1cccc([S@@](C)(=O)=NC(=O)C2COC2)c1 [Example 6D, (R)-2-((6-fluoro-2-methylpyridin-3-yl)oxy)-4-methyl-N-(3-(S-methyl-N-(oxetane-3-carbonyl)sulfonimidoyl)phenyl)-5-(trifluoromethyl)nicotinamide]

IC50 [1]: < 5 nM
IC50 [2]: < 5 nM
Compound: Cc1nc(F)ccc1Oc1nnc(C(F)(F)F)c(C)c1C(=O)Nc1cccc([S@@](C)(=O)=NC(=O)[C@@H]2CCCN2)c1 [Example 26D, N-(3-((R)—N-(L-prolyl)-S-methylsulfonimidoyl)phenyl)-3-((6-fluoro-2-methylpyridin-3-yl)oxy)-5-methyl-6-(trifluoromethyl)pyridazine-4-carboxamide]

IC50 [7]: < 5 nM
IC50 [8]: < 5 nM
Compound: Cc1nc(F)ccc1Oc1ccc(C(F)(F)F)c(C)c1C(=O)Nc1cccc([S@@](C)(=O)=NC(=O)[C@@H](C)O)c1 [Example 28B]

IC50 [3]: > 200 nM
IC50 [4]: > 200 nM
Compound: Cc1nc(O)ccc1Oc1ncc(C(F)(F)F)c(C)c1C(=O)Nc1cccc([S@](C)(=N)=O)c1 [Example 117C]

IC50 [5]: < 5 nM
IC50 [6]: < 5 nM
Compound: Cc1nc(F)ccc1Oc1cc(C(F)(F)F)c(Cl)cc1C(=O)Nc1ccc(F)c([S@@](C)(=N)=O)c1 [Example 70A]

IC50 [3]: > 200 nM
IC50 [4]: > 200 nM
Compound: COc1cc(C#N)ccc1Oc1ncc(-c2ccc(C(F)F)cc2)c(C)c1C(=O)Nc1ccnc(S(C)(=N)=O)c1 (stereo not shown) [Example 125C]

IC50 [5]: < 5 nM
IC50 [6]: < 5 nM
Compound: C[S@@](=N)(=O)c1cccc(NC(=O)c2c(Oc3ccc(OC(F)(F)F)cc3)cc(C(F)(F)F)c(Cl)c2F)c1 [Example 50A]

IC50 [7]: 5 to 50 nM
IC50 [8]: 5 to 50 nM
Compound: Cc1nc(F)ccc1Oc1cc(C(F)(F)F)ccc1C(=O)Nc1cccc([S@@](C)(=O)=NC(=O)CN)c1 [Example 14B, (R)-2-((6-fluoro-2-methylpyridin-3-yl)oxy)-N-(3-(N-glycyl-S-methylsulfonimidoyl)phenyl)-4-(trifluoromethyl)benzamide]

IC50 [3]: > 200 nM
IC50 [4]: > 200 nM
Compound: Cc1nc(F)ccc1Oc1ncc(C(F)F)c(C)c1C(=O)Nc1ccnc(S(C)(=N)=O)c1 (stereo not shown) [Example 48C, 5-(difluoromethyl)-2-((6-fluoro-2-methylpyridin-3-yl)oxy)-4-methyl-N-(2-(S-methylsulfonimidoyl)pyridin-4-yl)nicotinamide]

IC50 [3]: > 200 nM
IC50 [4]: > 200 nM
Compound: Cc1nc(F)ccc1Oc1ncc(C(F)(F)F)c(C)c1C(=O)Nc1ccc(C(N)=O)nc1 [Example 111C]
